Laboratory results as given in paper PMC10266451, “SKF96365 modulates activity of CatSper channels in human sperm” (Molecular Human Reproduction, 2023).

Legend:
Type in all cases: cell-based
[1] = biological target: T1, CatSper (cation channel of sperm) (Homo sapiens, UniProt Q7RTX7+Q86XQ3+Q8NEC5+Q96P56); experiment: fluo4 Ca2+ population fluorimetry in human sperm; conditions: activation, capacitated intact sperm, sEBSS with BSA, whole-cell [Ca2+]i read-out attributed to CatSper
T1 construct: gene CATSPER1; native channel complex in capacitated donor spermatozoa; with Cation channel sperm-associated auxiliary subunit beta; Cation channel sperm-associated auxiliary subunit gamma; Cation channel sperm-associated auxiliary subunit delta; Cation channel sperm-associated auxiliary subunit epsilon; Cation channel sperm-associated auxiliary subunit zeta

[2] = biological target: T1, CatSper (cation channel of sperm); experiment: whole-cell patch clamp of human sperm, Cs+ CatSper currents; conditions: activation within 30 s, followed by secondary block; divalent-free Cs+ solutions, ramps -80 to 80 mV
[3] = biological target: T1, CatSper (cation channel of sperm); experiment: as above; conditions: activation, stable; divalent-free Cs+ solutions, ramps -80 to 80 mV; direct binding to CatSper not tested

EC50 ([1]; mechanism distinct from progesterone) [µM] | % current enhancement at 30 μM [2] [%] | SMILES | EC50 ([1]; direct binding to CatSper not tested) [µM] | % current increase at 3 μM [3] [%]
9.5 | 100 | COc1ccc(CCCOC(Cn2ccnc2)c2ccc(OC)cc2)cc1 (stereo not shown) [SKF96365] |  | 
 |  | CC(=O)[C@H]1CC[C@H]2[C@@H]3CCC4=CC(=O)CC[C@]4(C)[C@H]3CC[C@]12C [progesterone] | 0.032 | 200
